Source: patent publication US20250090875A9, “IMMUNOSTIMULATORY COMPOUNDS AND CONJUGATES” (Seagen Inc., priority 2021, published 2025)

Experiments:
[1] = tested on: human immune cells; test: Cytokine induction in human immune cells by TLR7/8 agonist-antibody conjugates (Luminex); format: cell-based; details: ADC with immune-targeting antibody, FIGS. 6, 7, 8
Procedure: Cells were stimulated with the various TLR7/8 agonist-antibody conjugates at different concentrations, and resulting supernatants were harvested and analyzed using a multiplex analyte kit (Luminex).
Immune cells were treated with 5 μg/mL of an immune-targeting antibody, TLR agonist compounds, and antibody conjugated with different TLR agonist compounds (to thereby form ADCs with average drug:antibody ratios of about 8). FIG. 6 summarizes MIP1β (left panel) and TNFα (right panel) responses generated by untreated immune cells, a TLR agonist coupled to a non-targeting antibody (‘Non-targeted’), and TLR agonist compounds conjugated with immune-targeted antibodies (‘targeted cmpd’ 1-7). […] Targeted compounds 2, 4, 5, and 7 correspond to C7 carboxymethylated imidazoquinoline compounds coupled to immunostimulatory antibodies by cleavable linkers. Targeted compounds 3 and 6 correspond to C7 carboxylated imidazoquinoline compounds coupled to immunostimulatory antibodies by cleavable linkers. FIG. 7 provides dose-dependent IL12p40 (left panel) and IL1β (right panel) responses generated with non-targeted (i.e., coupled to an isotype antibody) and immune targeting antibody conjugated compounds, with ‘cmpd 9’ corresponding to a C7 carboxylated imidazoquinoline compound and ‘cmpo10’ corresponding to its C7 carboxymethyl analogue. FIG. 8 provides dose-dependent interleukin 6 (IL6, left panel) and TNFα (right panel) responses with ADCs comprising immune cell targeting antibodies coupled to either C7 carboxylated (cmpd 3, 8, 9) or C7 carboxymethylated (cmpd 4, 7, 10) imidazoquinoline compounds.
In order to ascertain whether the difference in activity of the N1 vs. C4 linked conjugates seen in the Renca model was due to variable potency, a dose range experiment was performed. The N1 and C4 linked targeted (ADC) and non-targeted conjugates were administered in a wide dose range (0.001 to 10 μg/mL) to exogenously derived human immune cells. […] Supernatants were harvested and analyzed using a multiplex analyte kit (Luminex).

[2] = tested on: primary human PBMCs; test: Cytokine induction in primary human PBMCs by small molecule TLR7/8 agonists (Luminex); format: cell-based; details: free drug; for IFNα, IL1β, MIP1β, TNFα induction, C7 carboxylic acid vs parent C7 methyl ester: FIG. 3; for MIP1β and TNFα responses: FIG. 4, compared with Resiquimod or methyl ester counterpart
Procedure: This example covers dose dependent human immune cell activation by small molecule TLR7/8 agonists. Primary human PBMCs were isolated from peripheral whole blood from human donors and were subjected to treatment with increasing concentrations of the agonists diluted in PBS. Cell culture supernatants were harvested 24 h after treatment and analyzed for induction of cytokines via multiplex ELISAs (Luminex).
Several small molecule TLR7/8 agonists were assessed for their ability to activate human immune cells in a dose dependent manner. Primary human PBMCs were isolated from peripheral whole blood from human donors and were subjected to treatment with increasing concentrations of the agonists diluted in PBS. 24 h after treatment cell culture supernatants were harvested and analyzed for induction of cytokines via multiplex ELISAs (Luminex).

[3] = tested on: MC38 tumors; test: MC38 colon tumor model in C57BL/6 mice; format: in vivo, mouse; details: ADC, carboxylic acid vs methyl ester payload, FIG. 12
Procedure: The activity of several conjugated TLR7/8 molecules in both methyl ester and carboxylic acid forms were also assessed in another colon tumor model, MC38. Results of this analysis are summarized in FIG. 12, which the top panel summarizing tumor volume and the bottom panel providing percent survival across 9 treatment groups. […] However, the increase in anti-tumor activity of the carboxylic acid version of the ADC was much more pronounced in this model for the S18a (methyl ester) or S18b (carboxylic acid) TLR7/8 agonist.
To assess if the small molecule and conjugated agonist are specific for the toll like 7 and/or 8 receptors, various small molecules and ADCs were tested on TLR7 receptor knockout animals. As TLR8 is normally nonfunctional in mice, in TLR7−/− mice there is a total loss of ability to respond to compounds that work through these receptors. To assess whether compounds are TLR7/8 specific, MC38 tumors were implanted into either wild type C57B1/6 mice or cognate TLR7−/− mice. When tumors reached ˜50 mm3 mice animals were treated q7dx3 with vehicle (PBS), 1 mg/kg of the free small molecule S18a, the isotype/non-targeted ADC with cmpd 9 or with an immune cell targeted version of the cmpd 9 IDC.

[4] = tested on: Renca tumors; test: Renca kidney carcinoma model in Balb/c mice; format: in vivo, mouse; details: for loss of potency, C4-linked vs N1-linked conjugate: dose increase of C4-linked conjugate needed to match 2 mg/kg N1-linked conjugate
Procedure: The difference in anti-tumor activity of the S18a and S18b conjugates was also assessed in the Renca kidney model. In this model, mice bearing Renca tumors were treated q7dx3 when tumors reached ˜100 mm^3 as indicated, and followed for mean group tumor growth (FIG. 14, top) and survival (FIG. 14, bottom) over time.
This example covers cancer treatment with EphA2 targeted TLR agonists. […] Balb/c mice were implanted with Renca tumor cells and when cells reached 100 mm^3 they were treated Q7dx3 treatments with 2.4 mg/kg of the indicated IDC, either non targeting isotype or an EphA2 targeting mAb.

[5] = SEC analysis of ADC aggregation (high molecular weight species) in plasma; format: physicochemical; details: ADC incubated with human or mouse plasma, FIG. 9
Procedure: Method I: Size-exclusion chromatography (SEC) was performed with a Waters ACQUITY UPLC system and an Acquity UPLC Protein BEH SEC Column, (200 Å, 1.7 μm, 4.6×150 mm, PN: 186005225). The mobile phase used was 7.5% isopropanol in 92.5% aqueous (25 mM sodium phosphate, 350 mM NaCl, pH 6.8), v/v. Elution was performed isocratically at a flow rate of 0.4 mL/min at ambient temperature.
To determine if any of these differences in activity potentially resulted from increases in aggregation as a subsequent result of changes in charge, SEC analysis was performed. ADCs containing either S18a (methyl ester) or S18b (carboxylic acid) were incubated with both human or mouse plasma and assessed for the formation of high molecular weight species (HMW) over time.

[6] = tested on: CT26 tumors; format: in vivo
Source text: This example covers in vivo assessments of anti-tumor activity of ADCs with TLR7/8 agonists. An in vivo syngeneic system was used to assess the ability of the ADCs having TLR ⅞ agonists as the payload to induce immune responses and drive an anti-tumor immune response using a subcutaneous, heterotopic mouse colon carcinoma model (a CT26 system). Female Balb/c mice were implanted with 1×10^5 CT26 cells sub-cutaneously in the flank on day 0. When mean tumor size of 100 mm^3 (measured using the formula: Volume (mm^3)=0.5*Length*Width^2 where length is the longer dimension) was reached, the mice were randomized into treatment groups of 6 mice per group. Animals were then treated intraperitoneally with the indicated treatment every 7 days, for 3 doses total. Stock concentrations of the ADCs were diluted to the appropriate concentration and injected into animals in 100 μL volumes. Tumor length and width and mouse weights were measured throughout the study and tumor volume was calculated using the formula above. Animals were followed until tumor volume reached 1000 mm^3, when animals were then euthanized.

[7] = tested on: plasma cytokines; test: Systemic cytokine response in CT26-tumor bearing mice; format: in vivo, mouse
Procedure: In addition to analyzing this response in non-tumor bearing animals simply on systemic immune activation, the C4/N1-linked TLR7/8 drug antibody conjugates were also administered to CT26-tumor bearing animals to determine how the linkage site affects cytokine response and anti-tumor response. The results are shown in FIG. 17, which provides MIP1b (top panel) and TNFα (bottom panel) responses generated with N1-(cmpd 9) and C4-(cmpd 11) linked compounds conjugated to targeting and non-targeting antibodies, as well as for untreated cells. […] This was true for targeted and non-targeted control conjugates.

[8] = tested on: plasma cytokines; test: Systemic plasma cytokine induction in non-tumor bearing Balb/c mice; format: in vivo, mouse
[9] = tumor/immune targeted mAb, 2 mg/kg every 7 days, 3 doses, FIG. 38

**Q.** With `CCCCc1nc2c(N)nc3cc(C(=O)O)ccc3c2n1CCN` [S11b] as the molecule, how does the “potency at activating immune cells vs methyl ester analogues” value (“potency … vs methyl ester analogues” for short) [1] read?
**A.** just as, if not more potent at activating immune cells than their methyl ester analogues

**Q.** And the “IFNα, IL1β, MIP1β, TNFα induction, C7 carboxylic acid vs parent C7 methyl ester” value [2]?
**A.** markedly lower potency and activity than its corresponding parent methyl ester compound

**Q.** What about the “MIP1β and TNFα responses” value [2] of the same molecule?
**A.** lower activities than their methyl ester counterparts

**Q.** With `CCCCc1nc2c(N)nc3cc(C(=O)O)ccc3c2n1Cc1ccc(CN(C)C)cc1` [S18b] as the molecule, how does the “tumor growth delay and survival” value [3] read?
**A.** distinct tumor growth delay and overall survival benefit

**Q.** What about the “tumor growth and survival” value ([4]; ADC, q7dx3 from ~100 mm^3, FIG. 14) of the same molecule?
**A.** very good tumor growth delay and superior overall survival advantage

**Q.** What about the “potency … vs methyl ester analogues” value [1] of the same molecule?
**A.** just as, if not more potent at activating immune cells than their methyl ester analogues

**Q.** What about the “aggregation (formation of high molecular weight species over time)” value [5] of the same molecule?
**A.** no significant difference in the amounts of aggregation

**Q.** With `CCCCc1nc2c(N)nc3cc(C(=O)O)ccc3c2n1Cc1ccc(CNC(=O)OCc2ccc(O[C@H]3O[C@H](CO)[C@@H](O)[C@H](O)[C@@H]3O)c(NC(=O)CCNC(=O)[C@H](CCCCNC(=O)CCOCCOCCOCCOCCOCCOCCOCCOCCOCCOCCOCCOC)NC(=O)CCN3C(=O)C=CC3=O)c2)cc1` [Compound 3, 4-amino-2-butyl-1-(4-(((((3-((S)-44-(3-(2,5-dioxo-2,5-dihydro-1H-pyrrol-1-yl)propanamido)-38,45-dioxo-2,5,8,11,14,17,20,23,26,29,32,35-dodecaoxa-39,46-diazanonatetracontan-49-amido)-4-(((2R,3S,4S,5S,6R)-3,4,5-trihydroxy-6-(hydroxymethyl)tetrahydro-2H-pyran-2-yl)oxy)benzyl)oxy)carbonyl)amino)methyl)benzyl)-1H-imidazo[4,5-c]quinoline-7-carboxylic acid] as the molecule, how does the “tumor growth delay and survival” value [3] read?
**A.** slight increased survival advantage

**Q.** And the “tumor growth delay and survival” value ([6]; targeted ADC, intraperitoneal, every 7 days, 3 doses)?
**A.** profound tumor growth delay

**Q.** For `CCCCc1nc2c(N)nc3cc(C(=O)O)ccc3c2n1Cc1ccc(CN)cc1` [S8b, 4-amino-1-(4-(aminomethyl)benzyl)-2-butyl-1H-imidazo[4,5-c]quinoline-7-carboxylic acid], which “potency … vs methyl ester analogues” value [1] is on record?
**A.** just as, if not more potent at activating immune cells than their methyl ester analogues

**Q.** What about the “IFNα, IL1β, MIP1β, TNFα induction, C7 carboxylic acid vs parent C7 methyl ester” value [2] of the same molecule?
**A.** markedly lower potency and activity than its corresponding parent methyl ester compound

**Q.** And the “MIP1β and TNFα responses” value [2]?
**A.** lower activities than their methyl ester counterparts

**Q.** With `CCCCc1nc2c(NC(=O)OCc3ccc(O[C@H]4O[C@H](CO)[C@@H](O)[C@H](O)[C@@H]4O)c(NC(=O)CCNC(=O)[C@H](CCCCNC(=O)CCOCCOCCOCCOCCOCCOCCOCCOCCOCCOCCOCCOC)NC(=O)CCN4C(=O)C=CC4=O)c3)nc3cc(C(=O)O)ccc3c2n1Cc1ccc(CN(C)C)cc1` [cmpd 11, 2-butyl-1-(4-((dimethylamino)methyl)benzyl)-4-((((3-((S)-44-(3-(2,5-dioxo-2,5-dihydro-1H-pyrrol-1-yl)propanamido)-38,45-dioxo-2,5,8,11,14,17,20,23,26,29,32,35-dodecaoxa-39,46-diazanonatetracontan-49-amido)-4-(((2R,3 S,4S,5 S,6R)-3,4,5-trihydroxy-6-(hydroxymethyl)tetrahydro-2H-pyran-2-yl)oxy)benzyl)oxy)carbonyl)amino)-1H-imidazo[4,5-c]quinoline-7-carboxylic acid] as the molecule, how does the “systemic activation (majority of cytokines), C4 vs N1 linkage” value ([7]; targeted and non-targeted control conjugates, FIG. 17) read?
**A.** reduced systemic activation

**Q.** And the “TNFα and MIP1β, C4 vs N1 linkage” value ([7]; targeted antibody conjugate)?
**A.** equivalent for TNFα but showed benefit for MIP1β

**Q.** What about the “IL6 and TNFα levels, C4 vs N1 linkage” value ([8]; immune-targeted ADC, 2 mg/kg intraperitoneal) of the same molecule?
**A.** no changes in IL6 or TNFα levels

**Q.** And the “reduction of systemic cytokine induction (MCP1, IP10, MIP1a, MIP1b, RANTES), C4 vs N1 linkage” value ([8]; immune-targeted ADC, 2 mg/kg intraperitoneal, plasma 3/6/24 h)?
**A.** 4.8 -fold

**Q.** And the “systemic cytokines (MIP1β, TNFα), C4 vs N1 linkage” value ([8]; non-targeting ADC, FIG. 16)?
**A.** greatly diminished systemic cytokines and non-specific uptake

**Q.** And the tumor growth ([4]; EphA2 targeting mAb or isotype, Q7dx3, 2-2.4 mg/kg)?
**A.** substantial tumor growth delayed noted for several of the animals

**Q.** What about the “loss of potency, C4-linked vs N1-linked conjugate” value [4] of the same molecule?
**A.** ~4 ×

**Q.** What about the “loss of potency, C4-linked vs N1-linked conjugate” value ([4]; listed as Compound 11) of the same molecule?
**A.** approximately 4 ×

**Q.** What about the “animals reaching complete tumor cures” value ([6]; EphA2 targeting mAb) of the same molecule?
**A.** 50%

**Q.** And the “anti-tumor activity and tumor growth delay” value ([6]; EphA2 targeting mAb or isotype, FIGS. 35, 36)?
**A.** all animals benefiting from tumor growth delay

**Q.** And the animals fully cured [6, 9]?
**A.** no cures

**Q.** And the “median tumor volume (tumor growth delay)” value [6, 9]?
**A.** advantage with the TLR7/8 containing IDC vs the naked tumor/immune targeted mAb in terms of tumor growth delay
